Measured values reported in patent publication US12275995B2, “Lysinibacillus sphaericus and aspirin chemoprevention of colorectal cancer” (priority 2019, dated 2025).

What was measured:
[1] = tested on: Lysinibacillus sphaericus; experiment: In vitro incubation of L. sphaericus with antibiotics (cell growth); type: cell-based; settings: in vitro incubation with single antibiotics of the cocktail
colorectal tumorigenesis [2] = experiment: AOM/DSS-induced colorectal cancer model in conventional C57BL/6 mice; type: in vivo
From the text: (§1) For each cycle, mice were allowed free access to drinking water supplemented with 2.0% DSS for 5 days, followed by 16 days of regular water. Drinking water was supplemented with antibiotics cocktail (0.2 g/L of ampicillin, neomycin and metronidazole and 0.1 g/L of vancomycin) for two weeks, every other two weeks, till the end of experiment, to deplete the gut microbiota. […] At day 80 for AOM/DSS model and day 84 for APC^min/+ model, mice were harvested. The intestines were longitudinally opened along the mesenteric margin and flushed with ice-cold phosphate-buffered saline (PBS). Solid neoplastic lesions were carefully counted for tumor number and measured for tumor size (average diameter, (major diameter+minor diameter)/2) and tumor load (sum of average diameters of all tumors). The intestinal tissues were fixed in 10% neutral buffered formalin and embedded in paraffin. Sections (4 μm) were stained with hematoxylin and eosin for histological examination by a pathologist (A/Professor Anthony W H Chan) who was blind to the experimental design. The remaining tissues were snap-frozen in liquid nitrogen, and stored at −80° C. until use. All procedures adhered to the guidelines approved by the Animal Experimentation Ethics Committee of the Chinese University of Hong Kong.

colorectal tumorigenesis [3] = experiment: APCmin/+ spontaneous colorectal cancer mouse model; type: in vivo; settings: aspirin 400 mg/L drinking water; microbiota-depleted APCmin/+ mice
Experimental: as §1, with “Drinking” for “For each cycle, mice were allowed free access to drinking water supplemented with 2.0% DSS for 5 days, followed by 16 days of regular water. Drinking”, “microbiota. Aspirin (Byer, Leverkusen, Germany), freshly prepared (400 mg/L) in drinking water twice a week, was continuously given to mice through the entire experiment.” for “microbiota.”

colorectal tumorigenesis [4] = experiment: AOM/DSS-treated germ-free and conventionalized germ-free Kunming mice; type: in vivo
Experimental: Germ-free wild-type Kunming mice (10 weeks old) in male gender were treated with AOM and DSS to induce intestinal neoplasia. The treatment regimens of AOM, DSS and aspirin were the same as described for conventional mice. In a separate experiment, to determine the direct effects of microbiota on chemoprevention, germ-free mice were conventionalized after their cages were placed out of germ-free environment at 10 weeks old prior to treatment. The remaining procedures performed were the same as described for conventional mice. Germ-free mice were bred at the Department of Laboratory Animal Science, The Third Military Medical University, Chongqing, China. The germ-free animal experiments were approved by the Animal Experimentation Ethics Committee of The Third Military Medical University.

COX-2 = COX-2 mRNA in distal colonic tissues by qRT-PCR; type: in vivo, mice; settings: for tissue COX-2 expression: compared to control mice
Experimental: Total RNA in distal colonic tissues was extracted using TRIzol reagent (Thermo Fisher Scientific). The quality and quantity of RNA were determined by NanoDrop2000 spectrophotometer. Complementary DNA (cDNA) was synthesized from 1000 ng of the extracted RNA by reverse transcription (PrimeScript RT Reagent Kit with gDNA Eraser) (Takara, Japan) and analyzed by qPCR with normalization by GAPDH. The primers used were: […]

PGE2 = experiment: Plasma PGE2 by ELISA; type: in vivo, mice
Experimental: The plasma levels of PGE2 were measured using Multispecies Competitive ELISA Kit (Thermo Fisher Scientific). Briefly, 500 μL ice-cold methanol was added to 150 μL of plasma sample with 28 μM indomethacin and mixed vigorously. After acidification by 2M HCl to pH 3.5, the aqueous layer was extracted with 500 μL chloroform and centrifuged at 2000 g for 20 min^25. The […] organic phase was discarded, and the remaining aqueous phase was evaporated to dryness under nitrogen, before measurement by the kit.

[5] = Plasma aspirin/salicylic acid level in APCmin/+ mice with or without antibiotics (UHPLC-Q-TOF/MS); type: in vivo; settings: for plasma level of aspirin: antibiotics-treated APCmin/+ mice relative to mice with intact microbiota
Experimental: (§2) The levels of aspirin from plasma, gut luminal contents and culture medium was determined by ultra-high-performance liquid chromatography-quadrupole time-of-flight mass spectrometry (UHPLC-Q-TOF/MS). The detection sample was mixed in 5 μL 4-C1-phenylalanine (0.39 mg/mL, internal standard). Aspirin and salicylic acid were extracted twice by 400 μL cold methanol. Supernatants were dried under nitrogen stream and detected by UHPLC (1290 Infinity LC, Agilent, Santa Clara, Calif.) and MS (6550 Q-TOF/MS, Agilent, CA).
(§3) The primary metabolite of aspirin, salicylic acid, in culture medium was examined by Trinder's method^26. Equal number of fecal bacteria (estimated by optical density (OD) 600) from APC^min/+ mice with and without antibiotic treatment were inoculated into the brain heart infusion (BHI) medium (Thermo Fisher Scientific) containing aspirin (10 mM). After 2-hour co-incubation at 37° C., the level of salicylic acid in medium was measured by Trinder's method^26. Briefly, the supernatant of medium was mixed with a solution containing 40 g ferric nitrate, 40 g mercuric chloride and 120 mL 1N HCL in 1 L ddH2O at 1:5 ratio. Salicylic acid was quantified by absorbance value at 540 nm. The plasma and luminal content levels of salicylic acid were evaluated by UHPLC-Q-TOF/MS.
To determine the reason for the enhanced CRC inhibitory effect of aspirin in microbiota-depleted mice, the plasma level of aspirin was evaluated in mice with or without intact microbiota. Antibiotics cocktail was administered to APC^min/+ mice for five days followed by oral administration of aspirin (10 mg/kg) (FIG. 4A), and subsequent UHPLC-Q-TOF/MS analysis (FIG. 4B). […] To confirm this observation, the level of salicylic acid, the primary metabolite of aspirin, was evaluated in the plasma. The plasma level of salicylic acid increased at 1 h post aspirin administration in microbiota-depleted mice compared to mice with intact microbiota (FIG. 9). These findings indicate that the gut microbiota is associated with the reduction of aspirin bioavailability.

fecal bacteria = type: in vitro ADME, mice
Experimental: as §3, with “The levels of aspirin from plasma, gut luminal contents and culture medium was determined by ultra-high-performance liquid chromatography-quadrupole time-of-flight mass spectrometry (UHPLC-Q-TOF/MS). The detection sample was mixed in 5 μL 4-[…] (0.39 mg/mL, internal standard). Aspirin and salicylic acid were extracted twice by 400 μL cold methanol. Supernatants were dried under nitrogen stream and detected by UHPLC (1290 Infinity LC, Agilent, Santa Clara, Calif.) and MS (6550 Q-TOF/MS, Agilent, CA). The primary” for “The primary”, “by UHPLC-Q-TOF/MS. Mouse feces were mixed with cooked meat (CM) medium (Thermo Fisher Scientific). […]” for “by UHPLC-Q-TOF/MS.”

[6] = Plasma and luminal aspirin/salicylic acid level in L. sphaericus-monocolonized germ-free mice; type: in vivo; settings: for plasma level of aspirin: L. sphaericus-monocolonized germ-free mice compared with control germ-free mice
Experimental: as §2, §3
In order to determine whether L. sphaericus can degrade aspirin and impacts its bioavailability in vivo, germ-free mice were gavaged with L. sphaericus (1×10^8 CFU) once/day for three days, followed by oral administration of aspirin (10 mg/kg) (FIG. 6C). […] Taken together, these findings from in vitro and in vivo experiments indicate that L. sphaericus causes aspirin degradation in the gut, thereby reducing aspirin bioavailability.

gut microbiota = experiment: Shotgun metagenomics of feces from aspirin-treated versus control APCmin/+ mice; type: in vivo
Experimental: Whole-genome shotgun metagenomic sequencing of fecal samples from mice were performed on Illumina HiSeq 2000 (Illumina, San Diego, Calif.) as previously described^27. […] Mammalian genomes (hg38, felCat8, canFam3, mm10, rn6, susScr3, galGal4 and bosTau8; UCSC Genome Browser) and 6877 bacterial plasmids (NCBI RefSeq database accessed on May 12, 2016), 2116 complete plastomes (NCBI RefSeq database accessed on May 12, 2016) and 6093 UNiVec sequences (NCBI RefSeq database accessed on May 12, 2016), which are potential habitat-/laboratory-associated or extra-chromosomal sequence contaminants, were removed after alignment using Bowtie2 v_2.2.9 with “very-sensitive” default settings. Taxonomy was assigned to metagenomic reads using k-mer-based algorithms implemented in Kraken taxonomic annotation pipeline with each k-mer in a read mapped to the lowest common ancestor of all reference genomes with exact k-mer matches. Each query was thereafter classified to a taxon with the highest total hits of k-mer matched by pruning the general taxonomic trees affiliated with mapped genomes. The final metagenomic read counts were rarified to the sample with the lowest value and further normalized by cumulative sum scaling. In-house fecal metagenomic sequences were examined for the abundance of candidate bacteria identified from mouse fecal samples^27,28.

[7] = reference 24, cited from earlier work
[8] = aspirin 400 mg/L drinking water, microbiota-depleted (antibiotics cocktail) AOM/DSS-treated mice, vs no aspirin
[9] = high-dose aspirin 1200 mg/L, conventional AOM/DSS-treated mice gavaged with L. sphaericus twice/week
[10] = higher dose aspirin 1200 mg/L in drinking water, microbiota-intact AOM/DSS-treated mice, vs mice without aspirin
[11] = AOM/DSS-treated conventionalized germ-free mice
[12] = AOM/DSS-treated germ-free mice, relative to untreated germ-free control mice
[13] = AOM/DSS mice with depleted microbiota
[14] = APCmin/+ mice with depleted microbiota
[15] = 0.5 h post oral aspirin 10 mg/kg
[16] = aspirin-treated APCmin/+ mice compared to control

CC1(C)S[C@@H]2[C@H](NC(=O)[C@H](N)c3ccccc3)C(=O)N2[C@H]1C(=O)O [ampicillin]
growth of L. sphaericus [1]: inhibiting the growth

CC(=O)Oc1ccccc1C(=O)O [aspirin, acetylsalicylic acid]
colorectal tumor load (colorectal tumorigenesis [2]; [8]): significant reductions | colorectal tumor number (colorectal tumorigenesis [2]; [8]): significant reductions | preventive effect on tumor load (colorectal tumorigenesis [2]; [9]): marginally | preventive effect on tumor number (colorectal tumorigenesis [2]; [9]): impaired the preventive effect | colorectal tumor load (colorectal tumorigenesis [2]; [10]): significantly reduced | colorectal tumor number (colorectal tumorigenesis [2]; [10]): significantly reduced | colorectal tumor load (colorectal tumorigenesis [3]): significantly decreased | colorectal tumor number (colorectal tumorigenesis [3]): significantly decreased | suppressive effect on tumorigenesis (tumor load) (colorectal tumorigenesis [4]; [11]): impaired by conventionalization | suppressive effect on tumorigenesis (tumor number) (colorectal tumorigenesis [4]; [11]): impaired by conventionalization | colorectal tumor load (colorectal tumorigenesis [4]; [12]): significantly reduced | colorectal tumor number (colorectal tumorigenesis [4]; [12]): significantly reduced | colonic COX-2 mRNA level (COX-2; [13]): significantly decreased | COX-2 expression (COX-2; AOM/DSS-treated germ-free mice): reductions | colonic COX-2 mRNA level (COX-2; [14]): significantly decreased | tissue COX-2 expression (COX-2; conventional mice with intact microbiota): no differences | tissue COX-2 expression (COX-2; conventionalized germ-free mice): no differences | plasma PGE2 level (PGE2; [13]): significantly decreased | plasma PGE2 level (PGE2; AOM/DSS-treated germ-free mice): reductions | plasma PGE2 level (PGE2; [14]): significantly decreased | plasma PGE2 level (PGE2; conventional mice with intact microbiota, compared to control mice): no differences | plasma PGE2 level (PGE2; conventionalized germ-free mice, compared to control mice): no differences | plasma level of aspirin [5, 15]: significantly increased | plasma level of aspirin ([5]; 1 h post oral aspirin 10 mg/kg): significantly increased | plasma level of salicylic acid (primary metabolite of aspirin) ([5]; 1 h post oral aspirin 10 mg/kg, microbiota-depleted mice compared to mice with intact microbiota): increased | salicylic acid level in the medium (UHPLC-Q-TOF/MS) (fecal bacteria): not significantly different | plasma level of aspirin [6, 15]: significantly reduced | plasma level of aspirin ([6]; 1 h post oral aspirin 10 mg/kg): significantly reduced | level of salicylic acid in the colon luminal content ([6]; 3 h post oral aspirin 10 mg/kg, L. sphaericus-monocolonized mice compared to control germ-free mice): significantly reduced | plasma level of salicylic acid ([6]; 3 h post oral aspirin 10 mg/kg, L. sphaericus-monocolonized mice vs control germ-free mice): significantly lowered | association between microbial community composition and aspirin treatment (multivariate component analysis) (gut microbiota; antibiotics-naive aspirin-treated APCmin/+ vs control mice): significant associations | Bifidobacterium and Lactobacillus genera (linear discriminant analysis effect size) (gut microbiota; [16]): enrichment | Clostridium and Clostridiodes genera (gut microbiota; [16]): depleted | probiotic species B. pseudolongum, B. breve, B. animalis, L. reuteri, L. gasseri, L. johnsonii (gut microbiota; [16]): enriched | level in circulation, effect of gut microbiota ([7]; after oral administration): reducing its level in circulation | difference in blood levels of aspirin in rats with and without microbial depletion ([7]; intravenous administration): abolished by intravenous administration | antithrombotic activity, effect of gut microbiota ([7]; oral administration): reduced the antithrombotic activity
